Test results published in PMC7545175 (Scientific Reports, 2020).
Where two headings read alike, the source gives them in different places.

Legend:
mu-opioid receptor (MOR) = mu-opioid receptor (MOR) (Homo sapiens, UniProt P35372); assay: FLIPR calcium assay in CHO-K1/MOR/Gα15 cells
[1] = system: MCF10A, a nonmalignant mammary epithelial cell line; assay: Cell viability assay (PrestoBlue, 72 h), MCF10A; type: cell-based; details: for Survival rate at 10 uM MCF10A / MCF-10A Inhibition rate: human, 72 h, 10 µM
Procedure: (§1) The cells were seeded in 384-well clear plates with a density of 8 × 10^2 cells/well for MCF-10A and BT-549 cell lines, 1 × 10^3 cells/well for MDA-MB-453, and 2 × 10^3 cells/well for MDA-MB-231 overnight. Then cells were treated with the indicated concentrations of test compounds for 72 h. At the end of incubation, 5 μL of PrestoBlue Cell Viability Reagent (Invitrogen, Carlsbad, CA, USA) was added to each well with 50 μL medium. The plates were incubated for an additional 1.5 h at 37 °C in a humidified 5% CO2 atmosphere; the relative fluorescence unit (RFU) in the reaction mixture will then be recorded (Ex560/Em590) by Victor^2-Vplate reader (PerkinElmer, Waltham, MA, USA). The cell lines were chosen based on the mutation status of PTEN and/or TP53: MCF-10A, the nonmalignant mammary epithelial cell line; BT-549 with mutation of PTEN and TP53; MDA-MB-453 with mutation of PTEN; MDA-MB-231 with mutation of TP53[47].

MDA-MB-453 = assay: Cell viability assay (PrestoBlue, 72 h), MDA-MB-453; type: cell-based; details: Homo sapiens; for viability at 10 µM: MDA-MB-453, 72 h, mean of at least two determinations, within ± 15%, read-out: Survival rate at 10 uM MDA-MB-453; for IC50: MDA-MB-453
Procedure: as §1

BT-549 = assay: Cell viability assay (PrestoBlue, 72 h), BT-549; type: cell-based; details: Homo sapiens; for viability at 10 µM: BT-549, 72 h, mean of at least two determinations, within ± 15%, read-out: Survival rate at 10 uM BT-549; for IC50: BT-549
Procedure: as §1

MDA-MB-231 = assay: Cell viability assay (PrestoBlue, 72 h), MDA-MB-231; type: cell-based, human; details: for viability at 10 µM / IC50: Homo sapiens; for viability at 10 µM: MDA-MB-231, 72 h, mean of at least two determinations, within ± 15%, read-out: Survival rate at 10 uM MDA-MB-231; for IC50: MDA-MB-231; for Activity toward TNBC cell lines (in words): TNBC cell lines MDA-MB-231, BT-549, MDA-MB-453
Procedure: as §1

[2] = Figure 4B, read-out: MDA-MB-453 IC50
[3] = Figure 4B, read-out: BT-549 IC50
[4] = Figure 4B, read-out: MDA-MB-231 IC50
[5] = Figure 3C, unit inferred, read-out: IC50 values MDA-MB-453
[6] = Figure 3C, unit inferred, read-out: IC50 values BT-549
[7] = Figure 3C, unit inferred, read-out: IC50 values MDA-MB-231

Chain of mu-opioid receptor (MOR) (P35372 whole entry): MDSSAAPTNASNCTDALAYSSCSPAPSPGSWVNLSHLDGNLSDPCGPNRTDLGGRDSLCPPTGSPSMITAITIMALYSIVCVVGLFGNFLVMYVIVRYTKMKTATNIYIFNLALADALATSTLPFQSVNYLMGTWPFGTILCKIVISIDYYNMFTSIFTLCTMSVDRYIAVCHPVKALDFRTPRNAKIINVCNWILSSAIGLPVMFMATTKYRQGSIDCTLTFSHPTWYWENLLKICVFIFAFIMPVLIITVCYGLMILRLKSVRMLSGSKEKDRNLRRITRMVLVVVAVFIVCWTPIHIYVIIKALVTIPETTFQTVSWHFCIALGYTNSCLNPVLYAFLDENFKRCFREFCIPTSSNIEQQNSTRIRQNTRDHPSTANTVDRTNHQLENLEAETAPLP

Structure (SMILES) | Cytotoxicity to MCF10A (in words) [1] | Survival rate at 10 uM MCF10A [1] | viability at 10 µM (MDA-MB-453) | viability at 10 µM (BT-549) | viability at 10 µM (MDA-MB-231) | other results
Cc1ccc2c(Cl)c(C(=O)NCC(c3ccccc3Cl)N(C)C)sc2c1 (stereo not shown) [Compound 25] | – | – | – | – | – | EC50 (mu-opioid receptor (MOR)): 6.12 µM
Cn1ncc(Cl)c1C(=O)Nc1ccc2nc(NC(=O)C3CCCCC3)sc2c1 [Compound 6] | low cytotoxicity | 6% | 19% | 22% | 33% | –
O=C(Nc1ccc(S(=O)(=O)NC2CCCCC2)cc1)C1CCCCC1 [Compound 26] | – | – | – | – | – | EC50 (mu-opioid receptor (MOR)): 0.56 µM
Nc1c(C(=O)c2ccccc2)sc2nc3c(cc12)CCCC3 [Compound 2] | low cytotoxicity | -5% | 15% | 16% | 34% | –
COC(=O)c1ccc(C(=O)Nc2nc(-c3ccc(C)cc3C)cs2)cc1 [Compound 18] | – | – | – | – | – | MCF-10A Inhibition rate [1]: 4%; Selectivity over nonmalignant mammary epithelial cell (in words) ([1]; versus MDA-MB-231): good selectivity; IC50 (MDA-MB-453; [2]): > 10 µM; IC50 (BT-549; [3]): > 10 µM; IC50 (MDA-MB-231; [4]): 620 nM
COc1ccc(C(=O)Nc2ncc(-c3ccncc3)s2)cc1 [Compound 23] | exhibited cytotoxicity | – | – | – | – | MCF-10A Inhibition rate [1]: 35%; IC50 (MDA-MB-453; [2]): 7.93 µM; IC50 (BT-549; [3]): 2.6 µM; IC50 (MDA-MB-231; [4]): 3980 nM; Activity toward TNBC cell lines (in words) (MDA-MB-231): moderate micro molar activities
O=C(c1ccc(Oc2ccc([N+](=O)[O-])cc2)cc1)c1ccc(Oc2ccc([N+](=O)[O-])cc2)cc1 [Compound 8] | – | – | 47% | 88% | 22% | IC50 (MDA-MB-453; [5]): > 20 µM; IC50 (BT-549; [6]): > 20 µM; IC50 (MDA-MB-231; [7]): 10700 nM; Activity toward TNBC cell lines (in words) (MDA-MB-231): broader TNBC inhibitions
CCN(CC)S(=O)(=O)c1ccc(C(=O)Nc2nc(-c3ccc(Cl)c(Cl)c3)cs2)cc1 [Compound 7] | low cytotoxicity | 117% | 29% | 54% | 6% | IC50 (MDA-MB-453; [5]): > 20 µM; IC50 (BT-549; [6]): > 20 µM; IC50 (MDA-MB-231; [7]): 2520 nM; Activity toward TNBC cell lines (in words) (MDA-MB-231): broader TNBC inhibitions
Cc1ccc(-c2csc(NC(=O)c3ccsc3)n2)c(C)c1 [Compound 19] | – | – | – | – | – | MCF-10A Inhibition rate [1]: 14%; IC50 (MDA-MB-453; [2]): > 10 µM; IC50 (BT-549; [3]): > 10 µM; IC50 (MDA-MB-231; [4]): 2680 nM
Cc1ccc(C(=O)Nc2cnc3ccccc3c2)cc1C [Compound 27] | – | – | – | – | – | EC50 (mu-opioid receptor (MOR)): 4.32 µM
COC(=O)Nc1nc2ccc(C(=O)c3ccccc3)cc2[nH]1 [Compound 12] | low cytotoxicity | 13% | 22% | 17% | 35% | –
COc1ccc(C(=O)Nc2nc(-c3ccc(C)cc3C)cs2)cc1 [Compound 16] | – | – | – | – | – | MCF-10A Inhibition rate [1]: 8%; IC50 (MDA-MB-453; [2]): 6.3 µM; IC50 (BT-549; [3]): > 10 µM; IC50 (MDA-MB-231; [4]): 1400 nM
O=C(N/N=C/c1ccc(Br)cc1)c1cc2ccccc2[nH]1 [Compound 11] | low cytotoxicity | 18% | 29% | 26% | 56% | –
CN(CCNC(=O)c1ccc(C(=O)NCCN(C)Cc2ccccc2)cc1)Cc1ccccc1 [Compound 24] | – | – | – | – | – | EC50 (mu-opioid receptor (MOR)): 5.71 µM
O=C(N/N=C/c1ccccc1Cl)c1[nH]c2ccc(Cl)cc2c1-c1ccccc1 [Compound 1] | low cytotoxicity | -7% | 17% | 12% | 36% | –
Cc1ccc(-c2csc(NC(=O)c3ccc(F)cc3)n2)c(C)c1 [Compound 4] | low cytotoxicity | 101% | 53% | 106% | 35% | –
Cc1cc(C)c(-c2csc(NC(=O)c3ccc(Br)cc3)n2)c(C)c1 [Compound 3] | low cytotoxicity | 44% | 21% | 101% | -14% | IC50 (MDA-MB-453; [5]): 5.19 µM; IC50 (BT-549; [6]): > 20 µM; IC50 (MDA-MB-231; [7]): 1490 nM; Activity toward TNBC cell lines (in words) (MDA-MB-231): broader TNBC inhibitions
Cc1ccc(-c2csc(NC(=O)c3cc(C)on3)n2)c(C)c1 [Compound 20] | – | – | – | – | – | MCF-10A Inhibition rate [1]: 14%; IC50 (MDA-MB-453; [2]): > 10 µM; IC50 (BT-549; [3]): > 10 µM; IC50 (MDA-MB-231; [4]): > 10000 nM
Cc1cc(N2CCN(C)CC2)nc(N2CCN(C(=O)c3ccc(C)c(C)c3)CC2)n1 [Compound 28] | – | – | – | – | – | EC50 (mu-opioid receptor (MOR)): 8.05 µM
CCN(C(=O)c1sc(NC(=O)CCl)c(C#N)c1C)C1CCCCC1 [Compound 5] | low cytotoxicity | 16% | -16% | 10% | -12% | –
O=C(Nc1ncc(-c2ccncc2)s1)c1ccc(F)cc1 [Compound 22] | – | – | – | – | – | MCF-10A Inhibition rate [1]: -5%; IC50 (MDA-MB-453; [2]): > 10 µM; IC50 (BT-549; [3]): > 10 µM; IC50 (MDA-MB-231; [4]): > 10000 nM; Activity toward TNBC cell lines (in words) (MDA-MB-231): did not show activities
Cc1ccc(-c2csc(NC(=O)c3ccc(F)cc3)n2)c(C)c1 [Compound 15] | – | – | – | – | – | MCF-10A Inhibition rate [1]: -8%; IC50 (MDA-MB-453; [2]): 9.28 µM; IC50 (BT-549; [3]): > 10 µM; IC50 (MDA-MB-231; [4]): 1890 nM
Cc1cc(C)c(C)c(-c2csc(NC(=O)c3cc([N+](=O)[O-])cc([N+](=O)[O-])c3)n2)c1C [Compound 10] | – | – | 25% | 52% | 21% | IC50 (MDA-MB-453; [5]): > 20 µM; IC50 (BT-549; [6]): 7.68 µM; IC50 (MDA-MB-231; [7]): 8400 nM; Activity toward TNBC cell lines (in words) (MDA-MB-231): broader TNBC inhibitions
Cc1cccc(C(=O)Nc2nc(-c3cc(C)ccc3C)cs2)c1 [Compound 9] | low cytotoxicity | 105% | 54% | 79% | 51% | –
